Patent publication US20070274947A1, “Antisense Oligonucleotides Directed to Ribonucleotide Reductase R1 and Uses Thereof in the Treatment of Cancer” (priority 2003, published 2007)
Entries after “also recorded” stand apart in the source; their conditions may differ.

Assays:
[1] = Acute intravenous toxicity study in rats (24-hour infusion); assay type: in vivo, Sprague-Dawley rats; details: rat
Text: The purpose of this study was to assess the adverse effects of SEQ ID NO:1 when administered as a single intravenous dose to Sprague-Dawley rats. […] Parameters assessed included mortality, clinical observations, body weight and food consumption assessment, clinical pathology and urinalysis measurements, and gross examination at necropsy.

[2] = Toxicokinetics in repeat dose (14-day and 21-day) continuous infusion studies in monkeys; details: monkey
[3] = test system: Caki-1 human kidney cancer cells; assay: Caki-1 renal tumor growth in SCID/beige mice; assay type: in vivo; details: SCID/beige mice (NK, T and B cell deficient); 10 mg/kg/2 days i.v.; 32 days
Method: To address whether SEQ ID NO:1 anti-tumor activity is NK mediated, tumor xenograft growth was assessed in SCID/beige mice that are NK, T and B cell deficient. Caki-1 human kidney cancer cells (5×10^6 cells in 100 μl of PBS) were subcutaneously injected into the right flank of 6-7 weeks old female SCID/beige mice. After the size of tumor reached an approximate volume of 100 mm^3, 7 days post tumor cell injection, SEQ ID NO:1 and SEQ ID NO:1-SCR were administered (10 mg/kg/2 days, i.v.). Control animals received saline alone for the same period. Caliper measurements at 1 week intervals were used to calculate tumor volumes. Each point in FIG. 3 (top) represents mean tumor volume calculated from 10 animals per experimental group. After 32 days the mice were sacrificed and the tumors weighed. Each bar in FIG. 3 (bottom) represents the mean tumor weight and standard error calculated for each treatment group.

[4] = Repeat dose 21-day toxicity study in monkeys (Part 2); details: monkey; 21-day infusion, 50 mg/kg/day
[5] = Phase I study, 14-day continuous intravenous infusion in patients with solid tumors or lymphoma
Method: To determine the maximal tolerated dose (MTD) and recommended Phase II dose of SEQ ID NO:1 in patients with solid tumors or lymphoma when administered as a 14-day continuous intravenous infusion.
Safety: Adverse events and laboratory evaluation. Dosage Selection and Dosing Interval:
The starting dose in the Phase I dose-escalation study is 6.0 mg/m^2/day (approximately 0.16 mg/kg/day) infused over 14 days.
DLT Definition: • Grade 4 neutropenia associated with fever or lasting 3 days or longer. • Platelet count <25,000 μl. • Any ≧ grade 3 coagulation abnormality (defined by PT and aPTT values). • Clinical hemorrhage ≧ grade 1. • Nausea/vomiting ≧ grade 3 despite maximal antiemetic therapy; diarrhea ≧ grade 3 despite maximal anti-diarrheal therapy. • Any other non-hematological toxicity ≧grade 3 with the exception of alopecia Interim Evaluation Status:
Preliminary evaluability assessment was performed. In the Phase I open label single arm study, SEQ ID NO:1 was administered in daily doses escalating from 6.0 mg/m^2 to 210.9 mg/m^2 in patients with solid tumors or lymphoma. SEQ ID NO:1 was administered as monotherapy by ambulatory intravenous infusion for 14 days in each 21 day cycle. […] Expected toxicities for agents in the same class as SEQ ID NO:1, phosphorothioate oligonucleotides, include fatigue, prolonged coagulation (PT/aPITI) times and elevated transaminase ALT/AST) levels.

[6] = test system: HT-29 human colon cancer cells; assay: HT-29 colon tumor growth in CD-1 nude mice; assay type: in vivo; details: for tumor weight / tumor growth: SEQ ID NO:1 10 mg/kg every other day
Method: A. HT-29 human colon cancer cells (3×10^6 cells in 100 μl of PBS) were subcutaneously injected into the right flank of 6-7 weeks old female CD-1 nude mice. After the size of tumor reached an approximate volume of 50 mm^3, 4 days post tumor cell injection, SEQ ID NO:1 was administered by bolus infusion into the tail vein every other day at 10 mg/kg. Control animals received saline alone for the same period. Antitumor effect of SEQ ID NO:1 was further compared to that of mitomycin C alone or that of SEQ ID NO:1 in combination with mitomycin C. Mitomycin C was administered intravenously at days 4, 11 and 18 with a dose of 3.5 mg/kg/week, one hour after the treatments with SEQ ID NO:1. All treatments were stopped at day 22. A day after the last treatment, tumors were excised from the animals and their weights were measured (FIG. 13A). […] The delay in tumor growth achieved with SEQ.
B. HT-29 human colon cancer cells (3×10^6 cells in 100 μl of PBS) were subcutaneously injected into the right flank of 5-6 week old female CD-1 nude mice. After the size of tumor reached an approximate volume of 100 mm^3, 7 days post tumor cell injection, SEQ ID NO:1 was administered by bolus infusion into the tail vein every other day at 10 mg/kg. Control animals received saline alone for the same period. Antitumor effect of SEQ ID NO:1 was further compared to that of CPT-11 alone or that of SEQ ID NO:1 in combination with CPT-11. CPT-11 was administered intraperitoneally for 5 days in a row from day 7-12 with a dose of 20 mg/kg in 100 μl saline. All treatments were stopped at day 32. A day after the last treatment, tumors were excised from the animals and their weights were measured (FIG. 13B).

R1 protein = assay: Western blot of R1 protein in MDA-MB-231 cells; assay type: cell-based, human; details: SEQ ID NO:1 0.025-0.2 μM, controls 0.2 μM
Method: MDA-MB-231 human breast adenocarcinoma cells were treated with increasing concentrations (0.025-0.2 μM) of SEQ ID NO:1, 0.2 μM of a scrambled control analogue of SEQ ID NO:1 (SEQ ID NO:1 Scr) or a mismatched control analogue of SEQ ID NO:1 (SEQ ID NO:1 Mis) that contains four base changes. Cells were then washed and fresh media were added. Cells were harvested 8-18 hours later for protein extractions. Aliquots of cell extracts were heated at 100° C. for 5 minutes and then analyzed on sodium dodecyl sulfate-polyacrylamide gels (Choy et al., 1988). Proteins were then transferred to membranes. Membranes were blocked and then incubated with anti-R1 antibody for 1 hour at room temperature. Membranes were washed three times in cold TBS-Tween buffer followed by incubation for 30 minutes to 1 hour at room temperature in the presence of a second antibody (goat anti-rabbit immunoglobulin linked with horseradish peroxidase). Blots were washed and bound antibodies were detected by development of the […] reaction (Fan et al., 1996).

## 5′-CTCTAGCGTCTTAAAGCCGA-3′ (CTCTAGCGTCTTAAAGCCGA; chemistry not given here) [SEQ ID NO:1]
[1]; 24-hour continuous i.v. infusion, 40 mg/kg/day
  toxicological effects: toxicological effects were not observed
[1]; 24-hour continuous i.v. infusion, 60, 80 and 90 mg/kg
  test article related effects: some test article related effects were found
[2]; Part 1 and Part 2 Recovery animals
  AUC estimates versus duration and dose: proportional with the duration of infusion and the administered dose level
[2]; Parts 1 and 2
  sex differences in toxicokinetic profile: no apparent sex-differences
[3]
  tumor volume and tumor weight: highly effective
[4]
  mortality: one high dose animal was sacrificed on Day 19 for ethical reasons
[5]; human, in vivo
  drug related serious adverse events: no drug related serious adverse events
  tolerability: well tolerated
[5]; interim evaluation
  additional sporadic toxicities considered possibly related to study therapy: Grade 3 hypokalemia, Grade 3 increased blood alkaline phosphatase and Grade 3 diarrhea
  patients with Grade 3 fatigue: Two patients
  patients with Grade 3 increased ALT: three patients
  patients with Grade 3 increased AST: one patient
  patients with prolonged aPTT: one patient
[5]; patients, no MTD seen up to and including this dose, interim
  maximum tolerated dose (MTD): ≥ 210.9 mg/m^2/day
[6]; FIG. 13A
  delay in tumor growth compared with mitomycin C alone: superior to the inhibitory effects observed with mitomycin C alone
[6]; FIG. 13A, mitomycin C 3.5 mg/kg/week i.v., stopped day 22
  tumor weight / tumor growth: significant delay of tumor growth
[6]; FIG. 13B, CPT-11 20 mg/kg i.p. 5 days, stopped day 32
  tumor weight / tumor growth: significant delay of tumor growth
R1 protein
  R1 protein expression: specifically decreases R1 protein expression in a dose-dependent manner; also recorded: decreased R1 protein expression in a dose-dependent manner
